The assay in a line: Compound was evaluated for inhibitory activity against herpes simplex type 2 protease (HSV-2 pr).

Among the data in BindingDB's records for doi:10.1016/0960-894X(96)00456-8 (1996) are IC50 values, retold here.

A word on the IC50: it is the concentration at which inhibition is half-maximal. A higher IC50 goes with a need for much substance. `CC(=O)Oc1ccc([C@H]2C[C@@]23N=C(c2ccccc2)OC3=O)cc1` [Acetic acid 4-((1R,3R)-7-oxo-5-phenyl-6-oxa-4-aza-spiro[2.4]hept-4-en-1-yl)-phenyl ester]: the midpoint of inhibition, the IC50, lay at 1200 nM.

On to `O=C1OC(c2ccccc2)=N[C@@]12C[C@@H]2c1ccccc1` [(1R,3R)-1,5-Diphenyl-6-oxa-4-aza-spiro[2.4]hept-4-en-7-one], for which 700 nM corresponded to half-maximal inhibition (IC50).
